From PMC7617869, “Molecular glues that inhibit deubiquitylase activity and inflammatory signaling” (Nature Structural & Molecular Biology, 2025)
“And” between values parts separate entries of the source, which are not always exact repeats. Identical values can stand only once.

Experiments:
[1] = test system: ISRE in THP-1 cells (TLR9 agonist ODN 2216); assay: THP-1 ISRE luciferase reporter, ODN 2216 stimulation; assay type: cell-based, human; settings: ODN 2216 1 µM, 4 μM compound, 16 h
Experimental: THP-1 in vitro experiments
THP-1-DualTM cells (InvivoGen), derived from a human monocytic cell line, isolated from a patient with acute monocytic leukaemia, were cultured as per manufacturer’s guidance. Cells were seeded at 1x10^6 cells/mL in RPMI1640 media containing 10% fetal bovine serum (FBS), 1% penicillin-streptomycin (PS) (Gibco Laboratories) with DMSO (0.1%) (control) or in media containing JMS-175- […]
ng/mL) (Merck Life Science), ODN 2216 (1 µM) (Miltenyi Biotec), or Poly:IC (1 µg/mL) (InvivoGen).
Tofacitinib (Cambridge Biosciences) at 0.4 µM was used for comparison against a known JAK inhibitor.
Cells were centrifuged at 300 g for 5 minutes. Supernatant was removed and subjected to simultaneous study of the NF -κB pathway, by monitoring the activity of secreted alkaline phosphatase reporter (SEAP), and the IRF pathway, by assessing the activity o f a secreted Lucia luciferase using QUANTI - Blue ™ Solution and QUANTI -Luc™ 4 Lucia/Gaussia (InvivoGen), respectively, as per manufacturer’s instructions. Pelleted cells were used for FACS analysis using IFNα/β R1 APC-conjugated antibody or isotype control (Biotechne, FAB245A and IC002A), or unstained staining procedure with and without Zombie GreenTM (Biolegend). Samples were analysed using CytoFlex LX (Beckman) (50,000 live cells per condition). Median fluorescence intensity for APC channel gated on single cell live cells was analysed and compared as a percentage to control (no stimulation condition). […]

ARISC = biological target: T1, ARISC (Homo sapiens, UniProt P46736+Q6UWZ7+Q9NXR7); assay: ARISC IQF DUB activity assay; assay type: biochemical; settings: Fig. 1g, ARISC
T1 construct: full-length BRISC (FL), ARISC (FL); made in house; host or cells: Spodoptera frugiperda (Sf9) insect cells, MultiBac
Experimental: (§1) IQF assays were performed in DUB reaction buffer containing 50 mM HEPES–NaOH pH 7.0, 100 mM NaCl, 0.1 mg ml^−1 BSA, 1 mM DTT and 0.03% v/v Brij-35. […] The final concentration of BRISC WT, all BRISC mutants, HsBRISCΔLoop, MmBRISC and DrBRISCΔNΔC was 1 nM. Other enzymes were tested at the following concentrations: 5 nM ARISC (FL), 10 nM CfBRISCΔNΔC, 250 nM AMSH* (ref. [43]), 500 nM USP2 and 1 μM trypsin (Sigma, 9002-07-7). For Michaelis–Menten experiments, 1 nM BRISC with 0–1 μM IQF K63-linked diubiquitin substrate was used. Michaelis–Menten analyses and Lineweaver–Burk plots were calculated using GraphPad Prism (version 9.0).
(§2) To assess enzymatic activity, BRISC complexes were diluted to concentrations between 1 nM and 50 nM. […] Then, 20-μl enzyme reactions were carried out in 384-well black flat-bottom low-flange plates (Corning, 35373). DUB activity was measured using IQF K63-linked diubiquitin (LifeSensors, DU6303) at 50 nM. Cleaved diubiquitin was monitored by measuring fluorescence intensity (excitation, 544 nm; emission, 575 nm; dichroic mirror, 560 nm). Fluorescence intensity was measured every minute for 30 min at 30 °C. Fluorescence intensity units were plotted against time to generate a linear reaction progress curve, where the initial velocity (V0) corresponds to the gradient of the curve (typically achieved within 15 min). IC50 values were calculated using the GraphPad Prism (version 9.0) built-in dose–response equation for inhibitor concentration versus response (variable slope).

trypsin = assay: Trypsin IQF diubiquitin selectivity assay; assay type: biochemical; settings: Fig. 1g, Trypsin
Experimental: BRISC DUB activity was measured at room temperature using 1 nM BRISC and 500 nM IQF diubiquitin K63 substrate (LifeSensors, DU6303) in the presence of DMSO and compounds at 10 μM (final concentrations). Assays were performed in 384-well black flat-bottom low-flange plates (Corning, 35373) in buffer containing 50 mM HEPES–NaOH pH 7.0, 100 mM NaCl, 1 mg ml^−1 BSA, 1 mM DTT and 0.03% v/v Brij-35. Then, 10 μl of twofold concentrated enzyme stock was dispensed, followed by transfer of 200 nl of compounds (1 mM stock) using a 384-pin tool and a 15-min incubation at room temperature. Then, 10 μl of twofold concentrated substrate stock was added and the reaction was monitored by measuring fluorescence intensity (excitation, 540 nm; emission, 580 nm) after 20-min incubation at room temperature and ~50% of substrate was consumed. Orthogonal assays for verification of H20 and P12 hit compounds using USP2 (100 nM) and trypsin (125 nM) were performed in identical conditions.
as §1, §2

O=C(NC1C2CNCC21)c1nn(C(=O)c2c(Cl)cccc2Cl)cc1NC(=O)c1c(Cl)cccc1Cl (stereo not shown) [FX-171-C]
ISRE luciferase signal in THP-1 supernatant [1]: 149.667 and 263.333 and 287.667
Normalised V0 (ARISC; FX-171-C 0.02 μM): 1.1225 and 0.966 and 1.021
Normalised V0 (ARISC; FX-171-C 0.0399999 μM): 1.087 and 0.9846 and 0.8911
Normalised V0 (ARISC; FX-171-C 0.0599997 μM): 1.028 and 0.9352 and 0.9674
Normalised V0 (ARISC; FX-171-C 0.0799994 μM): 1.023 and 0.9476 and 0.8942
Normalised V0 (ARISC; FX-171-C 0.119998 μM): 0.9409 and 0.9459 and 1.0338
Normalised V0 (ARISC; FX-171-C 0.199996 μM): 1.019 and 0.9437 and 0.9099
Normalised V0 (ARISC; FX-171-C 0.799936 μM): 0.9597 and 0.9609 and 1.054
Normalised V0 (ARISC; FX-171-C 1.25984 μM): 0.9789 and 0.9339 and 0.958
Normalised V0 (ARISC; FX-171-C 1.9996 μM): 1.042 and 0.9796 and 1.015
Normalised V0 (ARISC; FX-171-C 3.159 μM): 0.8585 and 0.91 and 0.9812
Normalised V0 (ARISC; FX-171-C 5.19739 μM): 0.9682 and 0.9452 and 1.064
Normalised V0 (ARISC; FX-171-C 7.99364 μM): 0.9509 and 0.8953 and 0.9841
Normalised V0 (ARISC; FX-171-C 12.7839 μM): 1.013 and 0.9875 and 0.9597
Normalised V0 (ARISC; FX-171-C 19.96 μM): 0.9552 and 0.8845 and 0.9378
Normalised V0 (ARISC; FX-171-C 31.4999 μM): 0.9912 and 0.9889 and 0.9686
Normalised V0 (ARISC; FX-171-C 50.147 μM): 0.9345 and 0.8543 and 0.967
Normalised V0 (ARISC; FX-171-C 79.7601 μM): 0.9819 and 0.9178 and 0.8968
Normalised V0 (ARISC; FX-171-C 125.99 μM): 0.9989 and 0.9716 and 0.9683
Normalised V0 (ARISC; FX-171-C 199.922 μM): 0.744 and 0.5764 and 0.798
Normalised V0 (trypsin; FX-171-C 0.02 μM): 0.9754 and 1.082 and 1.037
Normalised V0 (trypsin; FX-171-C 0.0399999 μM): 0.8958 and 1.072 and 0.9551
Normalised V0 (trypsin; FX-171-C 0.0599997 μM): 0.994 and 1.174 and 1.005
Normalised V0 (trypsin; FX-171-C 0.0799994 μM): 0.9908 and 1.085 and 0.9856
Normalised V0 (trypsin; FX-171-C 0.119998 μM): 0.909 and 1.102 and 1.137
Normalised V0 (trypsin; FX-171-C 0.199996 μM): 1.048 and 1.0751 and 0.9569
Normalised V0 (trypsin; FX-171-C 0.499975 μM): 0.9677 and 1.122 and 0.9918
Normalised V0 (trypsin; FX-171-C 0.799936 μM): 0.9633 and 1.093 and 0.8806
Normalised V0 (trypsin; FX-171-C 1.25984 μM): 1.083 and 0.9949 and 1.069
Normalised V0 (trypsin; FX-171-C 1.9996 μM): 1.032 and 1.136 and 0.9684
Normalised V0 (trypsin; FX-171-C 3.159 μM): 0.959 and 1.075 and 1.119
Normalised V0 (trypsin; FX-171-C 5.19739 μM): 1.013 and 1.118 and 1.082
Normalised V0 (trypsin; FX-171-C 7.99364 μM): 1.036 and 1.142 and 1.053
Normalised V0 (trypsin; FX-171-C 12.7839 μM): 1.107 and 1.095 and 0.9652
Normalised V0 (trypsin; FX-171-C 19.96 μM): 0.9382 and 0.9859 and 0.9654
Normalised V0 (trypsin; FX-171-C 31.4999 μM): 0.9264 and 1.08 and 0.8456
Normalised V0 (trypsin; FX-171-C 50.147 μM): 0.8123 and 0.9453 and 0.8818
Normalised V0 (trypsin; FX-171-C 79.7601 μM): 0.7444 and 0.9554 and 0.7546
Normalised V0 (trypsin; FX-171-C 125.99 μM): 0.6817 and 0.8207 and 0.6739
Normalised V0 (trypsin; FX-171-C 199.922 μM): 0.4322 and 0.4467 and 0.4966
